In publication PMC6272674, “Selected Compounds Structurally Related to Acyclic Sesquiterpenoids and Their Antibacterial and Cytotoxic Activity” (Molecules, 2015):
Values after ≈ are worked out from the molar mass of the structure shown.

How the values were obtained:
[1] = system: Enterococcus faecalis ATCC 51299; experiment: Micro-dilution broth MIC, Enterococcus faecalis; format: cell-based; conditions: ATCC51299, 24 h, 37 °C, read-out: Minimum Inhibitory Concentrations MIC
Method: (§1) The standard strains, Gram-positive: Staphylococcus aureus ATCC […], Enterococcus faecalis Van B ATCC 51299 and Enterococcus faecium VA sensitive ATCC 35667, and Gram-negative: Escherichia coli ATCC 25922, Klebsiella pneumoniae ATCC 700603 and Acinetobacter baumannii ATCC 19606, came from a collection of the Environmental Biology Department, Medical University of Łódź. The standard strains were cultivated in Columbia Agar Medium and incubated at 37 °C for 24 h in aerobic conditions.
(§2) The antibacterial activity of the racemates and E/Z-mixtures was investigated using the micro‑dilution broth method. The compounds were diluted in ethanol. This stock solution was mixed with 100 µL of Mueller-Hinton broth to obtain concentrations from 10 µg/mL to 80 µg/mL. The mixtures were then transferred to 96-well microtiter plates. The microbial suspension was standardised to a cell density of 1.5 × 10^8 CFU, which was equal to an optical density of 0.5 on the Mc Farland scale by a bio-Merieux densitometer; one well was filled with broth only to act as a control for strain growth.

Keratinocytes HaCaT = experiment: MTT viability, HaCaT; format: cell-based, human; conditions: Homo sapiens, 24 h, range 10–1000 µM, read-out: half maximal inhibitory concentration (IC50), interpolated
Method: (§3) Cell lines and in vitro culture conditions: The human promyelocytic leukaemia cell line HL-60 was obtained from the Centre of Molecular and Macromolecular Biology in Łódź, Poland and was cultured in RPMI 1640 medium with 20% heat-inactivated fetal bovine serum (FBS). To reduce spontaneous differentiation, the cells were never allowed to exceed a concentration of 1.0 × 10^6 cells/mL. The human keratinocyte cell line HaCaT was obtained from Cell Lines Service, Germany (CLS) and cultured in DMEM medium with 10% FBS. Human colorectal adenocarcinoma HT29 and normal epithelial IEC-6 cell lines (from ATCC) were cultured in DMEM medium with 10% FBS. The human skin melanoma cell line MEWO (from CLS) was cultured in DMEM:F12 supplemented with 2 mM L-glutamine and 10% FBS. Human fibroblasts from gingiva isolated from original tissue, HFIB-G, (from Provitro) were cultured in Quantum 333 (from Immunique). The media were supplemented with 100 U/mL penicillin and 100 µg/mL streptomycin; all media components were obtained from Life Technologies. The adherent cell lines used in the studies were seeded on microplates before they exceeded 80% of confluence. Cells were cultured at 37 °C in 5% CO2 air atmosphere/95% air atmosphere.
(§4) Cytotoxic activity: The cells (the density for HL-60 was 0.5 × 10^4 cells/100 µL, otherwise it was 1 × 10^4 cells/100 µL) were plated into each well of 96-well microtiter plates and, after their attachment to the plate surface, treated with 10 µL of the indicated concentrations of compounds for 24 h. Viability was determined by MTT assay following the treatment. MTT (3-[4.5-dimethylthiazol-2-yl]-2.5-diphenyltetrazolium bromide; Sigma, St. Louis, MO, USA) solution was added to each well and incubated for another 4 h. The resulting MTT-formazan product was dissolved by the addition of lysis buffer (20% SDS and 50% DMF). The amount of formazan was determined by measuring absorbance at 570 nm with a Synergy 2 microplate reader (BioTek, Winooski, VT, USA) operated by the Gen5 program. The experiments were conducted three times with five replications. The results are expressed as an optical density ratio of the treatment to control. All data are presented as means ± SD.

Malignant Melanoma MEWO = experiment: MTT viability, MEWO; format: cell-based, human; conditions: Homo sapiens, 24 h, range 10–1000 µM, read-out: half maximal inhibitory concentration (IC50), interpolated
Method: as §3, §4

[2] = system: Escherichia coli ATCC 25922; experiment: Micro-dilution broth MIC, Escherichia coli; format: cell-based; conditions: ATCC25922, 24 h, 37 °C, read-out: Minimum Inhibitory Concentrations MIC
Method: as §1, §2

[3] = system: Enterococcus faecium ATCC 35667; experiment: Micro-dilution broth MIC, Enterococcus faecium; format: cell-based; conditions: ATCC35667, 24 h, 37 °C, read-out: Minimum Inhibitory Concentrations MIC
Method: as §1, §2

MTT viability, HT29 = format: cell-based, human; conditions: human, HT29 colorectal adenocarcinoma cells, 1000 µM (IC50 exceeded 1000 µM), read-out: viability ± standard deviation at 1000 µM
Method: as §3, §4

[4] = system: Klebsiella pneumoniae ATCC 700603; experiment: Micro-dilution broth MIC, Klebsiella pneumoniae; format: cell-based; conditions: ATCC700603, 24 h, 37 °C, read-out: Minimum Inhibitory Concentrations MIC
Method: as §1, §2

MTT viability, HFIG = format: cell-based, human; conditions: human, HFIG (HFIB-G) gingival fibroblasts, 1000 µM (IC50 exceeded 1000 µM), read-out: viability ± standard deviation at 1000 µM
Method: as §3, §4

[5] = system: Acinetobacter baumannii ATCC 19606; experiment: Micro-dilution broth MIC, Acinetobacter baumannii; format: cell-based; conditions: ATCC19606, 24 h, 37 °C, read-out: Minimum Inhibitory Concentrations MIC
Method: as §1, §2

MTT viability, IEC6 = format: cell-based; conditions: rat, IEC-6 small intestine epithelial cells, 1000 µM (IC50 exceeded 1000 µM), read-out: viability ± standard deviation at 1000 µM
Method: as §3, §4

[6] = system: Promyelocytic Leukaemia HL-60; experiment: MTT viability, HL-60; format: cell-based, human; conditions: Homo sapiens, HL-60, 24 h, HL-60, MTT, range 10–1000 µM, read-out: half maximal inhibitory concentration (IC50), interpolated
Method: as §3, §4

[7] = system: Staphylococcus aureus ATCC 43300; experiment: Micro-dilution broth MIC, Staphylococcus aureus; format: cell-based; conditions: ATCC43300, 24 h, 37 °C, read-out: Minimum Inhibitory Concentrations MIC
Method: as §1, §2

MTT viability, HaCaT = format: cell-based, human; conditions: human, HaCaT keratinocytes, 1000 µM (IC50 exceeded 1000 µM), read-out: viability ± standard deviation at 1000 µM
Method: as §3, §4

Fibroblasts HFIG = experiment: MTT viability, HFIG; format: cell-based, human; conditions: Homo sapiens, Fibroblast, 24 h, range 10–1000 µM, read-out: half maximal inhibitory concentration (IC50), interpolated
Method: as §3, §4

MTT viability, MEWO = format: cell-based, human; conditions: human, MEWO malignant melanoma cells, 1000 µM (IC50 exceeded 1000 µM), read-out: viability ± standard deviation at 1000 µM
Method: as §3, §4

| Structure (SMILES) | MIC [1] | IC50 (Keratinocytes HaCaT) | IC50 (Malignant Melanoma MEWO) | MIC [2] | MIC [3] | viability at 24 h, 1000 µM (MTT viability, HT29) | MIC [4] | viability at 24 h, 1000 µM (MTT viability, HFIG) | MIC [5] | viability at 24 h, 1000 µM (MTT viability, IEC6) | IC50 [6] | MIC [7] | viability at 24 h, 1000 µM (MTT viability, HaCaT) | IC50 (Fibroblasts HFIG) | viability at 24 h, 1000 µM (MTT viability, MEWO) |
| --- | --- | --- | --- | --- | --- | --- | --- | --- | --- | --- | --- | --- | --- | --- | --- |
| CC(=O)OCC=C(C)CCC=C(C)C(C)CCC=C(C)C (stereo not drawn) [Compound 30, 3,7,8,12-Tetramethyltrideca-2,6,11-trien-1-yl acetate] | 24 µg/mL | 900 µM | 850 µM | 30 µg/mL | 18 µg/mL | 96% | 24 µg/mL | 105% | 24 µg/mL | 86% | 289 µM | 30 µg/mL | – | – | – |
| CC(=O)OC/C=C(\C)CCC=CC(C)CCC=C(C)C (stereo not drawn) [Compound 31, (E)-3,8,12-Trimethyltrideca-2,6,11-trien-1-yl acetate] | 20 µg/mL | – | 930 µM | 26 µg/mL | 20 µg/mL | 107% | 22 µg/mL | – | 18 µg/mL | 94% | 350 µM | 24 µg/mL | 98% | 850 µM | – |
| CC(=O)OCC=C(C)CC(C)CCC=C(C)C (stereo not drawn) [Compound 33, 3,5,9-Trimethyldeca-2,8-dien-1-yl acetate] | 18 µg/mL | – | – | 26 µg/mL | 16 µg/mL | 110% | 18 µg/mL | 100% | 22 µg/mL | 95% | 400 µM | 26 µg/mL | 101% | – | 103% |
| CC(=O)OCC=C(C)CCC(C)CCC=C(C)C (stereo not drawn) [Compound 34, 3,6,10-Trimethylundeca-2,9-dien-1-yl acetate] | 20 µg/mL | – | – | 18 µg/mL | 18 µg/mL | 98% | 20 µg/mL | 99% | 18 µg/mL | 79% | 312 µM | 32 µg/mL | 110% | – | 98% |
| CC(=O)OCC=C(C)C(C)CC(C)CCC=C(C)C (stereo not drawn) [Compound 35, 3,4,6,10-Tetramethylundec-2,9-dien-1-yl acetate] | 16 µg/mL | – | – | 16 µg/mL | 14 µg/mL | 83% | 18 µg/mL | 87% | 12 µg/mL | 71% | 343 µM | 34 µg/mL | 102% | – | 112% |
| CC(=O)OCC=C(C)CCC=C(C)CCC=C(C)C [Farnesyl acetate (5), farnesyl acetate, reference compound] | 20 µg/mL | – | 734 µM | 28 µg/mL | 20 µg/mL | 105% | 22 µg/mL | 98% | 22 µg/mL | 78% | 121 µM | 28 µg/mL | 102% | – | – |
| CNC(C)C1CCC(N)C(OC2C(N)CC(N)C(OC3OCC(C)(O)C(NC)C3O)C2O)O1 (stereo not drawn) [Gentamicin, reference compound] | > 64 µg/mL | – | – | 4 µg/mL (≈ 8.38 µM) | 32 µg/mL (≈ 67 µM) | – | 32 µg/mL (≈ 67 µM) | – | 32 µg/mL (≈ 67 µM) | – | – | 16 µg/mL (≈ 33.5 µM) | – | – | – |
